System: hepatocytes
Assay: RNA-seq of hepatocytes treated with Phase III failure compounds
Conditions: hepatocytes
Description: RNA-seq was performed to determine the effects of the compounds on hepatocytes.
Significance was determined by the criteria of FPKM≥0.5, a log 2(fold-change)≥1, and a […].

## CCC(CC)[C@H](NC(C)=O)[C@@H]1[C@H](O)[C@@H](C(=O)O)C[C@H]1NC(=N)N.O.O.O [peramivir (trihydrate), peramivir]
Gene PTRH2
  RNA-seq results, PTRH2: 0.15
  RNA-seq results: PTRH2: −0.47
Gene PUS1
  RNA-seq results, PUS1: 0.16
  RNA-seq results: PUS1: 0.29
Gene PXMP2
  RNA-seq results, PXMP2: 0.19
  RNA-seq results: PXMP2: −0.29
Gene PXMP4
  RNA-seq results, PXMP4: 0.22
  RNA-seq results: PXMP4: −0.05
Gene RAI1
  RNA-seq results, RAI1: 0.12
  RNA-seq results: RAI1: 0.38
Gene RANBP2
  RNA-seq results, RANBP2: −0.29
  RNA-seq results: RANBP2: −0.16
Gene RASA1
  RNA-seq results, RASA1: −0.13
  RNA-seq results: RASA1: −0.26
Gene RBCK1
  RNA-seq results, RBCK1: 0.64
  RNA-seq results: RBCK1: 0.26
Gene RBM10
  RNA-seq results, RBM10: 0.13
  RNA-seq results: RBM10: 0.11
Gene REN
  RNA-seq results, REN: 0
  RNA-seq results: REN: 0.46
Gene RMND1
  RNA-seq results, RMND1: −0.07
  RNA-seq results: RMND1: −0.47
Gene RMRP
  RNA-seq results, RMRP: 0.54
  RNA-seq results: RMRP: −1.76
Gene RNASEH2A
  RNA-seq results, RNASEH2A: 0.54
  RNA-seq results: RNASEH2A: −0.19
Gene RORC
  RNA-seq results, RORC: 0.4
  RNA-seq results: RORC: 0.58
Gene RPGRIP1L
  RNA-seq results, RPGRIP1L: −0.2
  RNA-seq results: RPGRIP1L: −0.12
Gene RRM2B
  RNA-seq results, RRM2B: −0.53
  RNA-seq results: RRM2B: −0.34
Gene RSAD1
  RNA-seq results, RSAD1: 0.1
  RNA-seq results: RSAD1: 0.11
Gene SAMHD1
  RNA-seq results, SAMHD1: −0.29
  RNA-seq results: SAMHD1: −0.43
Gene SC5D
  RNA-seq results, SC5D: 0.05
  RNA-seq results: SC5D: −0.56
Gene SCARB1
  RNA-seq results, SCARB1: 0.12
  RNA-seq results: SCARB1: 0.11
Gene SCN9A
  RNA-seq results, SCN9A: −0.56
  RNA-seq results: SCN9A: −0.09
Gene SDCCAG8
  RNA-seq results, SDCCAG8: −0.12
  RNA-seq results: SDCCAG8: −0.10
Gene SEPN1
  RNA-seq results, SEPN1: 0.26
  RNA-seq results: SEPN1: −0.02
Gene SERAC1
  RNA-seq results, SERAC1: −0.1
  RNA-seq results: SERAC1: −0.34
Gene SERPINA1
  RNA-seq results, SERPINA1: −0.03
  RNA-seq results: SERPINA1: −0.16
Gene SERPING1
  RNA-seq results, SERPING1: 0.12
  RNA-seq results: SERPING1: −0.27
Gene SERPINI1
  RNA-seq results, SERPINI1: −0.33
  RNA-seq results: SERPINI1: −0.37
Gene SETBP1
  RNA-seq results, SETBP1: −0.1
  RNA-seq results: SETBP1: 0.05
Gene SFXN4
  RNA-seq results, SFXN4: 0.09
  RNA-seq results: SFXN4: −0.17
Gene SLC2A1
  RNA-seq results, SLC2A1: 0.56
  RNA-seq results: SLC2A1: 0.08
Gene SLC2A2
  RNA-seq results, SLC2A2: −0.62
  RNA-seq results: SLC2A2: −0.24
Gene SLC2A9
  RNA-seq results, SLC2A9: 0.24
  RNA-seq results: SLC2A9: 0.16
Gene SLC4A4
  RNA-seq results, SLC4A4: −0.08
  RNA-seq results: SLC4A4: −0.30
Gene SLC6A6
  RNA-seq results, SLC6A6: 0.1
  RNA-seq results: SLC6A6: −0.29
Gene SLC6A8
  RNA-seq results, SLC6A8: 0.26
  RNA-seq results: SLC6A8: 0.27
Gene SLC6A20
  RNA-seq results, SLC6A20: 0.4
  RNA-seq results: SLC6A20: −0.44
Gene SLC7A7
  RNA-seq results, SLC7A7: −0.01
  RNA-seq results: SLC7A7: 0.03
Gene SLC10A1
  RNA-seq results, SLC10A1: −0.05
  RNA-seq results: SLC10A1: −0.14
Gene SLC10A3
  RNA-seq results, SLC10A3: 0.11
  RNA-seq results: SLC10A3: 0.57
Gene SLC10A5
  RNA-seq results, SLC10A5: −0.66
  RNA-seq results: SLC10A5: 0.46
Gene SLC10A7
  RNA-seq results, SLC10A7: −0.13
  RNA-seq results: SLC10A7: −0.54
Gene SLC11A2
  RNA-seq results, SLC11A2: 0.08
  RNA-seq results: SLC11A2: 0.04
Gene SLC19A1
  RNA-seq results, SLC19A1: 0.2
  RNA-seq results: SLC19A1: 0.05
Gene SLC19A2
  RNA-seq results, SLC19A2: 0.09
  RNA-seq results: SLC19A2: −0.17
Gene SLC19A3
  RNA-seq results, SLC19A3: 0
  RNA-seq results: SLC19A3: −0.16
Gene SLC22A1
  RNA-seq results, SLC22A1: 0.13
  RNA-seq results: SLC22A1: −0.12
Gene SLC22A5
  RNA-seq results, SLC22A5: 0.12
  RNA-seq results: SLC22A5: −0.16
Gene SLC25A1
  RNA-seq results, SLC25A1: 0.16
  RNA-seq results: SLC25A1: 0.33
Gene SLC25A10
  RNA-seq results, SLC25A10: 0.09
  RNA-seq results: SLC25A10: 0.12
Gene SLC25A12
  RNA-seq results, SLC25A12: 0.29
  RNA-seq results: SLC25A12: 0.27
Gene SLC25A13
  RNA-seq results, SLC25A13: 0.11
  RNA-seq results: SLC25A13: −0.17
Gene SLC25A15
  RNA-seq results, SLC25A15: −0.01
  RNA-seq results: SLC25A15: 0.03
Gene SLC25A19
  RNA-seq results, SLC25A19: −0.01
  RNA-seq results: SLC25A19: −0.19
Gene SLC25A20
  RNA-seq results, SLC25A20: −0.1
  RNA-seq results: SLC25A20: −0.32
Gene SLC25A29
  RNA-seq results, SLC25A29: 0.22
  RNA-seq results: SLC25A29: 0.65
Gene SLC25A32
  RNA-seq results, SLC25A32: −0.09
  RNA-seq results: SLC25A32: −0.32
Gene SLC27A2
  RNA-seq results, SLC27A2: −0.21
  RNA-seq results: SLC27A2: −0.36
Gene SLC27A5
  RNA-seq results, SLC27A5: 0.25
  RNA-seq results: SLC27A5: 0.13
Gene SLC29A3
  RNA-seq results, SLC29A3: 0.07
  RNA-seq results: SLC29A3: −0.02
Gene SLC33A1
  RNA-seq results, SLC33A1: 0.02
  RNA-seq results: SLC33A1: −0.02
Gene SLC35C1
  RNA-seq results, SLC35C1: 0.17
  RNA-seq results: SLC35C1: 0.07
Gene SLC39A4
  RNA-seq results, SLC39A4: 0.31
  RNA-seq results: SLC39A4: 0.32
Gene SLC40A1
  RNA-seq results, SLC40A1: 0.39
  RNA-seq results: SLC40A1: −0.18
Gene SLC46A1
  RNA-seq results, SLC46A1: 0.08
  RNA-seq results: SLC46A1: 0.17
Gene SLC51A
  RNA-seq results, SLC51A: 0.08
  RNA-seq results: SLC51A: −0.03
Gene SLC51B
  RNA-seq results, SLC51B: 0.29
  RNA-seq results: SLC51B: 0.08
Gene SLCO1B1
  RNA-seq results, SLCO1B1: −0.33
  RNA-seq results: SLCO1B1: −0.23
Gene SLCO4C1
  RNA-seq results, SLCO4C1: −0.39
  RNA-seq results: SLCO4C1: −0.05
Gene SMAD4
  RNA-seq results, SMAD4: −0.2
  RNA-seq results: SMAD4: −0.17
Gene SMARCB1
  RNA-seq results, SMARCB1: 0.11
  RNA-seq results: SMARCB1: −0.19
Gene SNX10
  RNA-seq results, SNX10: −0.36
  RNA-seq results: SNX10: −0.57
Gene SORT1
  RNA-seq results, SORT1: −0.15
  RNA-seq results: SORT1: −0.12
Gene SPP2
  RNA-seq results, SPP2: −0.12
  RNA-seq results: SPP2: −0.17
Gene SPRTN
  RNA-seq results, SPRTN: −0.17
  RNA-seq results: SPRTN: −0.18
Gene ST3GAL5
  RNA-seq results, ST3GAL5: −0.19
  RNA-seq results: ST3GAL5: −0.11
Gene STAT1
  RNA-seq results, STAT1: −0.31
  RNA-seq results: STAT1: −0.45
Gene STEAP3
  RNA-seq results, STEAP3: 0.03
  RNA-seq results: STEAP3: 0.03
Gene STIM1
  RNA-seq results, STIM1: 0.1
  RNA-seq results: STIM1: −0.07
Gene SULT2A1
  RNA-seq results, SULT2A1: 0.65
  RNA-seq results: SULT2A1: −0.07
Gene SUOX
  RNA-seq results, SUOX: −0.18
  RNA-seq results: SUOX: −0.01
Gene TARS2
  RNA-seq results, TARS2: 0.2
  RNA-seq results: TARS2: −0.08
Gene TAT
  RNA-seq results, TAT: −0.56
  RNA-seq results: TAT: 0.16
Gene TCIRG1
  RNA-seq results, TCIRG1: 0.29
  RNA-seq results: TCIRG1: 0.39
Gene TCTN3
  RNA-seq results, TCTN3: −0.04
  RNA-seq results: TCTN3: −0.34
Gene TDO2
  RNA-seq results, TDO2: −0.58
  RNA-seq results: TDO2: −0.14
Gene TF
  RNA-seq results, TF: 0.02
  RNA-seq results: TF: −0.09
Gene TFR2
  RNA-seq results, TFR2: 0.21
  RNA-seq results: TFR2: 0.07
Gene TGFB1
  RNA-seq results, TGFB1: −0.25
  RNA-seq results: TGFB1: −0.16
Gene THPO
  RNA-seq results, THPO: −0.03
  RNA-seq results: THPO: 0.03
Gene THRB
  RNA-seq results, THRB: −0.28
  RNA-seq results: THRB: −0.18
Gene TK2
  RNA-seq results, TK2: 0.12
  RNA-seq results: TK2: 0.15
Gene TMEM67
  RNA-seq results, TMEM67: −0.01
  RNA-seq results: TMEM67: 0.04
Gene TMEM135
  RNA-seq results, TMEM135: −0.13
  RNA-seq results: TMEM135: −0.41
Gene TMEM165
  RNA-seq results, TMEM165: −0.14
  RNA-seq results: TMEM165: −0.17
Gene TMLHE
  RNA-seq results, TMLHE: −0.03
  RNA-seq results: TMLHE: −0.50
Gene TMPRSS6
  RNA-seq results, TMPRSS6: 0.1
  RNA-seq results: TMPRSS6: 0.34
Gene TNFRSF1A
  RNA-seq results, TNFRSF1A: 0.25
  RNA-seq results: TNFRSF1A: −0.13
Gene TNFSF11
  RNA-seq results, TNFSF11: −0.54
  RNA-seq results: TNFSF11: −0.28
Gene TP53
  RNA-seq results, TP53: −0.02
  RNA-seq results: TP53: 0.04
Gene TTC21B
  RNA-seq results, TTC21B: −0.14
  RNA-seq results: TTC21B: −0.28
Gene TTPA
  RNA-seq results, TTPA: −0.46
  RNA-seq results: TTPA: −0.20
Gene TTR
  RNA-seq results, TTR: 0.19
  RNA-seq results: TTR: −0.23
Gene TYMP
  RNA-seq results, TYMP: 0.37
  RNA-seq results: TYMP: 0.37
Gene UBR1
  RNA-seq results, UBR1: −0.38
  RNA-seq results: UBR1: −0.15
Gene UGT1A1
  RNA-seq results, UGT1A1: −0.06
  RNA-seq results: UGT1A1: −0.38
Gene UGT2B28
  RNA-seq results, UGT2B28: 0.09
  RNA-seq results: UGT2B28: 0.41
Gene UNC13D
  RNA-seq results, UNC13D: 0.05
  RNA-seq results: UNC13D: 0.44
Gene UPB1
  RNA-seq results, UPB1: 0.33
  RNA-seq results: UPB1: 0.19
Gene UQCRB
  RNA-seq results, UQCRB: 0.17
  RNA-seq results: UQCRB: −0.18
Gene UROC1
  RNA-seq results, UROC1: −0.25
  RNA-seq results: UROC1: −0.26
Gene UTRN
  RNA-seq results, UTRN: −0.35
  RNA-seq results: UTRN: −0.06
Gene VIPAS39
  RNA-seq results, VIPAS39: 0.05
  RNA-seq results: VIPAS39: −0.08
Gene VLDLR
  RNA-seq results, VLDLR: 0.62
  RNA-seq results: VLDLR: −0.30
Gene VPS13A
  RNA-seq results, VPS13A: −0.28
  RNA-seq results: VPS13A: 0.08
Gene VPS33B
  RNA-seq results, VPS33B: 0.18
  RNA-seq results: VPS33B: 0.13
Gene WAS
  RNA-seq results, WAS: 0.19
  RNA-seq results: WAS: 0.03
Gene WDR35
  RNA-seq results, WDR35: −0.19
  RNA-seq results: WDR35: −0.03
Gene XDH
  RNA-seq results, XDH: 0.28
  RNA-seq results: XDH: 0.17
Gene YARS2
  RNA-seq results, YARS2: 0
  YARS2 expression, RNA-seq result: −0.36

From patent US20210254056A1, “IDENTIFICATION AND TARGETED MODULATION OF GENE SIGNALING NETWORKS” (CAMP4 THERAPEUTICS CORPORATION, priority 2017, published 2021)
